The data set can be described thus: Measurement of LogP values by HPLC on reversed phase columns (EEC directive 79/831 Annex V.A8). It is filed as physicochemical. The procedure, abridged:
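LogP measured by reversed-phase HPLC following EEC directive 79/831 Annex V.A8. Lambda-max taken from UV spectra at 200–400 nm at chromatographic peak maxima; diastereoisomer values listed separately.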

Marks after values point to notes of the source that are not given here.

Turning to `CCCCC(=O)Nc1nsc(C(=O)NCC2CCCCC2)c1Cl` [I-450], the LogP is 3.20[c].
To `COc1c(F)ccc(CNC(=O)c2snc(N)c2Cl)c1F` [I-464] belongs 2.12[a]; to `COc1cccc(CNC(=O)c2snc(N)c2Cl)c1Cl` [I-465], 2.23[a].
To `O=CNc1nsc(C(=O)NCc2ccc(F)cc2F)c1Cl` [I-467] belongs 1.89[a]; to `C[C@H](NC(=O)c1snc(NC(=O)C(F)F)c1Cl)C1CCCCC1` [I-522], 3.06[a].
With `Nc1nsc(C(=O)NCC2CCCCC2)c1Br` [I-539], the LogP is 2.51[a].
To `O=C(NCC1CCCCC1)c1cc(N(Cc2ccccc2)Cc2ccccc2)ns1` [I-540] belongs 5.22[a]; to `O=C(NCC1CCCCC1)c1snc(N(Cc2ccccc2)Cc2ccccc2)c1Br` [I-541], 6.25[a].
Next, `CON(Cc1ccc(F)cc1F)C(=O)c1snc(N)c1Cl` [I-542]: 2.50[a]; `CON(CC1CCCCC1)C(=O)c1snc(N)c1Cl` [I-543]: 3.04[a].
For `O=C(Nc1nsc(C(=O)NCc2ccc(Cl)cc2)c1Cl)c1ccccc1` [I-569], the LogP is 2.97[a].
With `CC(=O)Nc1nsc(C(=O)NCc2ccc(Cl)cc2)c1Cl` [I-570], the LogP was 2.03[a].
Next, `CC(=O)N(C(C)=O)c1nsc(C(=O)NCc2ccc(Cl)cc2)c1Cl` [I-571]: 2.99[a].
For `COc1ccc(CNc2nsc(C(=O)NC3CC4CCC3(C)C4(C)C)c2Cl)cc1` (stereo not drawn) [I-572], the LogP is 5.02[a];.
To `O=C(NCc1ccc(Cl)cc1)c1snc(NC(=O)C(F)F)c1Cl` [I-574] belongs 2.51[a].
Next, `O=C(NCc1ccc(Cl)cc1)c1snc(NCC(F)(F)F)c1Cl` [I-578]: 3.44[a]; `COC(=O)Nc1nsc(C(=O)NCc2ccc(Cl)cc2)c1Cl` [I-579]: 2.29[a].
Next, `O=C(NCc1ccc(Cl)cc1)c1snc(NC2CC2)c1Cl` [I-580]: 3.07[a].
In the case of `C#CCNc1nsc(C(=O)NCc2ccc(Cl)cc2)c1Cl` [I-581], the LogP was 2.97[a].
On to `O=C(NCc1ccc(Cl)cc1)c1snc(N(C(=O)c2ccccc2)C(=O)c2ccccc2)c1Cl` [I-582], for which the LogP is 4.39[a].
To `Cc1c(N)nsc1C(=O)NCc1c(F)cc(F)cc1F` [I-583] belongs 1.69[a].
Next, `Cc1c(N)nsc1C(=O)NCc1cc(F)c(F)c(F)c1` [I-584]: 1.92[a]; `Cc1c(N)nsc1C(=O)NCc1cc(F)cc(F)c1F` [I-585]: 1.82[a]; `Cc1c(N)nsc1C(=O)NCc1c(F)cccc1Cl` [I-587]: 1.61[a].
Next, `Cc1c(N)nsc1C(=O)NCc1cc(F)c(F)cc1F` [I-588]: 1.64[a]; `Cc1c(N)nsc1C(=O)NCc1c(F)ccc(F)c1F` [I-596]: 1.49[a].
`Cc1c(N)nsc1C(=O)NCc1ccc(F)c(F)c1F` [I-597]: the LogP is 1.68[a].
To `COc1ccc(CNc2nsc(C(=O)NCc3ccc(C4CC4)cc3)c2C2CC2)cc1` [I-600] belongs 3.94[a]; to `CCC(=O)Nc1nsc(C(=O)NC(C)C2CCCCC2)c1Cl` (stereo not drawn) [I-601], 2.82[a].
Next, `Nc1nsc(C(=O)NCc2ccc(C3CC3)cc2)c1C1CC1` [I-606]: 2.48[a]; `CN1C2CCC1CC(NC(=O)c1snc(N)c1Cl)C2` (stereo not drawn) [I-607]: −0.20[c].
For `C#Cc1c(NC(=O)C(F)(F)F)nsc1C(=O)NCC1CCCCC1` [I-609], the LogP was 3.05[a].
To `Nc1nsc(C(=O)NCC2(F)CCCCC2)c1Cl` [I-615] belongs 2.17[a]; to `Nc1nsc(C(=O)NCC2CCCCC2)c1C#CCO` [I-618], 1.90[c]; to `Nc1nsc(C(=O)NC2CCCC3CCCCC32)c1Cl` (stereo not drawn) [I-621], 3.39[a].
Next, `Nc1nsc(C(=O)NC2CCCC3CCCCC32)c1Cl` (stereo not drawn) [I-622]: 3.48[a].
To `O=C(NC1CCCC2CCCCC21)c1snc(NCC(F)(F)F)c1NCC(F)(F)F` (stereo not drawn) [I-631] belongs 4.82[a]; to `Nc1nsc(C(=O)NCC2CCC(O)C2)c1Cl` (stereo not drawn) [I-658], 0.72[a].
Turning to `COc1ccc(CNc2nsc(C(=O)NCc3ccc(C)o3)c2Cl)cc1` [I-674], the LogP is 3.27[a].
As for `COc1ccc(CNc2nsc(C(=O)NCC3CCC(C)CC3)c2Cl)cc1` (stereo not drawn) [I-675], the LogP is 4.56[a].
Next, `O=C(NCC1CCCCC1)c1snc(NCCCO)c1Cl` [I-676]: 2.46[a].
For the compound `Nc1nsc(C(=O)NCc2cc(F)c(F)cc2F)c1Cl` [I-677], the LogP was 2.03[a].
Next, `O=CCCNc1nsc(C(=O)NCC2CCCCC2)c1Cl` [I-715]: 2.83[a]; `Nc1nsc(C(=O)NCc2cccc(I)c2)c1Cl` [I-716]: 2.51[a]; `O=C(O)CCNc1nsc(C(=O)NCC2CCCCC2)c1Cl` [I-721]: 2.42[a].
Take `CCOc1c(N)nsc1C(=O)NCc1c(F)cc(F)cc1F` [I-724]: the LogP was 2.09[a].
With `CCOc1c(N)nsc1C(=O)NCC1CCCC1` [I-725], the LogP was 2.18[a].
Next, `CCOc1c(N)nsc1C(=O)NCC1(O)CCCCC1` [I-726]: 1.55[a]; `CCOc1c(N)nsc1C(=O)NC1CCCCC1` [I-727]: 2.14[a]; `CCOc1c(N)nsc1C(=O)NCC1CCCCCC1` [I-728]: 2.83[a].
`CCOc1c(N)nsc1C(=O)NCC1CCCCO1` (stereo not drawn) [I-729]: the LogP was 1.66[a].
Next, `CCOc1c(N)nsc1C(=O)NCc1ccccc1F` [I-730]: 1.93[a].
Regarding `CCOc1c(N)nsc1C(=O)NCc1ccc(Cl)cc1` [I-731], the LogP is 2.26[a].
For `COc1c(N)nsc1C(=O)NCc1c(F)cc(F)cc1F` [I-732], the LogP is 1.82[a].
Next, `COc1c(N)nsc1C(=O)NCc1ccccc1F` [I-733]: 1.64[a]; `COc1c(N)nsc1C(=O)NCC1CCCCO1` (stereo not drawn) [I-734]: 1.31[a]; `COc1c(N)nsc1C(=O)NCC1CCCCCC1` [I-735]: 2.50[a].
To `COc1c(N)nsc1C(=O)NCC1CCCC1` [I-736] belongs 1.87[a].
For `COc1c(N)nsc1C(=O)NCc1ccc(Cl)cc1` [I-737], the LogP was 1.98[a].
To `CC1CCC(CNC(=O)c2snc(N)c2Cl)CC1` (stereo not drawn) [I-738] belongs 2.75[a].
To `COc1ccc(CNc2nsc(C(=O)NCC34CCC(CC3)C4)c2Cl)cc1` [I-739] belongs 4.29[a]; to `Nc1cc(C(=O)NCC2CCCC2O)sn1` (stereo not drawn) [I-774], 0.63[a].
On to `Nc1cc(C(=O)NCC2CCC(O)C2)sn1` (stereo not drawn) [I-775], for which the LogP is 0.36[a].
To `COc1cc(F)ccc1CNC(=O)c1snc(N)c1Cl` [I-782] belongs 2.02[a].
Next, `N#Cc1ccc(CNC(=O)c2snc(N)c2Cl)cc1` [I-783]: 1.44[a]; `Cc1cc(F)ccc1CNC(=O)c1snc(N)c1Cl` [I-784]: 2.09[a].
Next, `Nc1nsc(C(=O)NCC2CCCCC2)c1O` [I-797]: 2.12[a]; `Nc1nsc(C(=O)NC2CCCC3CCCCC32)c1Cl` (stereo not drawn) [I-808]: 3.33[a].
For the compound `Cc1cc(F)ccc1CNC(=O)c1snc(NC(=O)C(F)F)c1Cl` [I-809], the LogP was 2.28[a].
Next, `CCC(=O)N(C(=O)CC)c1nsc(C(=O)NCc2ccc(C#N)cc2)c1Cl` [I-810]: 2.89[a].
Next, `CCC(=O)Nc1nsc(C(=O)NCc2ccc(C#N)cc2)c1Cl` [I-811]: 1.54[a]; `N#Cc1ccc(CNC(=O)c2snc(NC(=O)C(F)(F)F)c2Cl)cc1` [I-812]: 2.12[a]; `N#Cc1ccc(CNC(=O)c2snc(NC(=O)C(F)F)c2Cl)cc1` [I-813]: 1.68[a].
As to `Cc1ccc(CNC(=O)c2snc(N)c2Cl)o1` [I-814], the LogP is 1.66[a].
To `CCC(=O)Nc1nsc(C(=O)NCc2ccc(F)cc2OC)c1Cl` [I-815] belongs 2.10[a].
Consider `Cc1cc(F)ccc1CNC(=O)c1snc(NC(=O)C(F)(F)F)c1Cl` [I-816], for which the LogP was 2.72[a].
For the compound `CCC(=O)Nc1nsc(C(=O)NCc2ccc(F)cc2C)c1Cl` [I-817], the LogP was 2.15[a].
`C[C@H](NC(=O)c1snc(N)c1Br)C1CCCCC1` [I-818]: the LogP was 2.84[a].
To `COc1cc(F)ccc1CNC(=O)c1snc(NC(=O)C(F)(F)F)c1Cl` [I-819] belongs 2.72[a]; to `COc1cc(F)ccc1CNC(=O)c1snc(NC(=O)C(F)F)c1Cl` [I-820], 2.23[a].
Take `Nc1nsc(C(=O)NCC2CCCCC2Cl)c1Cl` (stereo not drawn) [I-821]: the LogP was 2.44[a].
To `Nc1nsc(C(=O)NCC23CCC(CC2)C3)c1Cl` [I-822] belongs 2.53[a]; to `COc1ccc(CNc2nsc(C(=O)NCC3(OC)CCC(C)CC3)c2Cl)cc1` (stereo not drawn) [I-823], 4.33[a].
For `CCC1(CNC(=O)c2snc(NCc3ccc(OC)cc3)c2Cl)CCCCC1` [I-824], the LogP was 4.89[a].
In the case of `COc1ccc(CNc2nsc(C(=O)NCC3(C)CCC(C)CC3)c2Cl)cc1` (stereo not drawn) [I-825], the LogP was 4.84[a].
Take `Nc1nsc(C(=O)NCC2(F)CCCC2)c1Cl` [I-826]: the LogP was 1.81[a].
Next, `Nc1nsc(C(=O)NCC2(F)CCC2)c1Cl` [I-827]: 1.50[a]; `Nc1nsc(C(=O)NCC2(F)CCCCC2)c1Br` [I-828]: 2.15[a]; `Nc1nsc(C(=O)NCC2(F)CCCC2)c1Br` [I-829]: 1.83[a].
To `Nc1nsc(C(=O)NCc2ccc(F)cc2)c1Br` [I-831] belongs 1.82[a]; to `Nc1nsc(C(=O)NCc2ccccc2F)c1Br` [I-832], 1.79[a]; to `N#CC(NC(=O)c1snc(N)c1Br)C1CCCCC1` (stereo not drawn) [I-833], 2.21[a].
For `CCC1(CNC(=O)c2snc(NC(C)C)c2Cl)CCCCC1` [I-834], the LogP is 5.03[a].
